Results published in publication PMC12156367, “Synthesis and Biological Evaluation of Seco-Coumarin/Furoxan Hybrids as Potent Anti-Tumor Agents to Overcome Multidrug Resistance via Multiple Mechanisms” (Molecules, 2025).

Tests used:
[1] = Solubility experiment (HPLC) in water/acetonitrile; type: physicochemical; conditions: in water/acetonitrile (table title)
Procedure: Wavelength: 254 nm; flow rate: 1.0 mL/min; column temperature: 25 °C. Mobile phase: Phase A: water, Phase B: acetonitrile (Table 5).
Compounds were dissolved in chromatographic-grade acetonitrile and diluted to concentrations of 200, 100, 50, 25, 12.5, and 6.25 µg/mL. A standard curve was plotted using the peak area under the curve (AUC) versus concentration. […] The supernatant was filtered through an ultrafiltration membrane and then subjected to HPLC analysis. The solubility of the target compound was determined by substituting the AUC of the test compound into the standard curve. Each measurement was performed in triplicate.

MCF-7/ADR = assay: Lysosomal and mitochondrial NO levels (Lyso-NO, Mito-NO probes), MCF-7/ADR; type: cell-based, human
Procedure: (§1) Lysosomal NO probes (Lyso-NO) and mitochondrial NO probes (Mito-NO), which are specifically used for detecting the nitric oxide levels in lysosomes and mitochondria, respectively, were provided by Professor Weili Zhao (Fudan University, China). Cells (MCF-7 or MCF-7/ADR) were plated in 6-well plates (2 × 10^5 cells/well). After overnight incubation, indicated concentrations of 9e were added to the cells for 4 h. Cells were first treated with 10 μM Lyso-NO or Mito-NO (15 min, 37 °C), then counterstained with Hoechst 33,342 nuclear dye (Beyotime, China; 10 min, 37 °C). Finally, the fluorescence intensity was measured under a fluorescence microscope (Olympus, Tokyo, Japan).

MCF-7 = assay: Lysosomal and mitochondrial NO levels (Lyso-NO, Mito-NO probes), MCF-7; type: cell-based, human; conditions: 9e
Procedure: as §1

## COc1ccc(CCC(=O)c2ccc(OCCOc3no[n+]([O-])c3S(=O)(=O)c3ccccc3)cc2OC)cc1 [Compound 9e, 4-(2-(3-methoxy-4-(3-(4-methoxyphenyl)propanoyl)phenoxy)ethoxy)-3-(phenylsulfonyl)-1,2,5-oxadiazole 2-oxide]
[1]
  Solubility: 56.4 ± 5.5%
MCF-7/ADR; 10 nM 9e, vs vehicle
  Lyso-NO probe signal: significant rise
MCF-7/ADR; 9e, vs control
  Mito-NO probe signal: no difference
MCF-7
  Lyso-NO and Mito-NO probe fluorescence intensity: no increase in fluorescence intensity
